Patent US20100286155A1, “ADRENOCORTICAL CARCINOMA TREATMENT” (OSI PHARMACEUTICALS, INC., priority 2009, published 2010)

Experiments:
[1] = target: T1, IGF-1R (Homo sapiens, UniProt P08069); assay: pIGF-1R inhibition in H295R tumor cells, RTK capture array; type: cell-based; conditions: 3 uM, 24 hours
T1 construct: endogenous in cells; host or cells: H295R ACC tumor cell line
Experimental: (§1) Measurement of pIGF-1R and pIR was determined by RTK capture array (ARY001, R&D Systems), and measurement of pAkt was determined by WB.

[2] = test system: pAkt; assay: pAkt inhibition in H295R tumor cells, WB; type: cell-based, human; conditions: 3 uM, 24 hours
Experimental: as §1

[3] = test system: H295R ACC tumor cell line; assay: H295R ACC tumor cell line OSI-906 sensitivity: proliferation (Cell Titer Glo) and apoptosis (Caspase Glo); type: cell-based, human; conditions: varying concentrations; proliferation at 72 h, apoptosis at 48 h after dosing
[4] = test system: adrenocortical carcinoma (ACC); assay: Phase I clinical trials of OSI-906 in ACC patients (RECIST, CT, FDG-PET); type: in vivo, human
Experimental: As of 14 Apr. 2009 in two phase I clinical trials, seven patients have been enrolled with ACC.
Patient 1 is a ACC patient, previously treated with six cycles of etoposide, cisplatin, and doxorubicin and mitotane from Feb. 2008 to Jul. 2008. […] 1, 2008, 450 mg/day, escalating to 600 mg, on days 1-3 of each 14 day period. At 8 weeks of treatment, CT scan was reported as stable. […] The overall reduction in RECIST measurement of target lesions was 43%. Subsequent scans indicated incremental response, including a scan showing a partial response of 72% decrease by RECIST compared to baseline. […] ACC is typically thought to be an FDG-avid tumor.
Objective Response Criteria (RECIST)
Complete Response: Disappearance of all clinical and radiological evidence of tumor (both target and nontarget) including normalization of elevated tumor markers at baseline, if documented. The patient must be free of all tumor-related symptoms. Complete Response must be confirmed at a second tumor assessment not less than 28 days apart from the assessment at which CR was observed.
Partial Response: At least a 30% decrease in the sum of Longest Diameter (LD) of target lesions taking as reference the baseline sum LD. Partial Response must be confirmed at a second tumor assessment not less than 28 days apart from the assessment at which PR was observed.
Stable Disease: Steady state of disease. Neither sufficient shrinkage to qualify for PR nor sufficient increase to qualify for progressive disease. Stable disease must be documented to be present at least 28 days from the start of the therapy. There may be no appearance of new lesions for this category.
Progressive Disease: At least a 20% increase in the sum of LD of measured lesions taking as references the smallest sum LD recorded since the treatment started. Appearance of new lesions will also constitute progressive disease. In exceptional circumstances, unequivocal progression of nontarget lesions may be accepted as evidence of disease progression (DP).
All patients who have measurable disease according to RECIST, who received at least 2 treatment periods of therapy, and who have their disease re-evaluated will be evaluable for response. All sites of disease should be followed as either target or nontarget lesions, as categorized at baseline. All measurable lesions up to a maximum of 5 lesions per organ or 10 lesions in total, representative of all involved organs, should be identified as target lesions, while all other lesions (either additional measurable lesions or nonmeasurable lesions) should be classified as nontarget lesions. To ensure comparability, the baseline radiology/scans and subsequent radiology/scans to assess response should be performed using identical techniques (i.e., scans performed immediately following bolus contrast administration should be made with a standard volume of contrast, the identical contrast agent, and preferably the same scanner). The same method, radiological or physical, should be employed and assessed by the same individual on each occasion.

[5] = Patient 1, 450 mg/day escalating to 600 mg, days 1-3 of each 14 day period
[6] = seven ACC patients enrolled in two phase I trials, as of 14 Apr. 2009

T1 sequence (P08069 31-1367): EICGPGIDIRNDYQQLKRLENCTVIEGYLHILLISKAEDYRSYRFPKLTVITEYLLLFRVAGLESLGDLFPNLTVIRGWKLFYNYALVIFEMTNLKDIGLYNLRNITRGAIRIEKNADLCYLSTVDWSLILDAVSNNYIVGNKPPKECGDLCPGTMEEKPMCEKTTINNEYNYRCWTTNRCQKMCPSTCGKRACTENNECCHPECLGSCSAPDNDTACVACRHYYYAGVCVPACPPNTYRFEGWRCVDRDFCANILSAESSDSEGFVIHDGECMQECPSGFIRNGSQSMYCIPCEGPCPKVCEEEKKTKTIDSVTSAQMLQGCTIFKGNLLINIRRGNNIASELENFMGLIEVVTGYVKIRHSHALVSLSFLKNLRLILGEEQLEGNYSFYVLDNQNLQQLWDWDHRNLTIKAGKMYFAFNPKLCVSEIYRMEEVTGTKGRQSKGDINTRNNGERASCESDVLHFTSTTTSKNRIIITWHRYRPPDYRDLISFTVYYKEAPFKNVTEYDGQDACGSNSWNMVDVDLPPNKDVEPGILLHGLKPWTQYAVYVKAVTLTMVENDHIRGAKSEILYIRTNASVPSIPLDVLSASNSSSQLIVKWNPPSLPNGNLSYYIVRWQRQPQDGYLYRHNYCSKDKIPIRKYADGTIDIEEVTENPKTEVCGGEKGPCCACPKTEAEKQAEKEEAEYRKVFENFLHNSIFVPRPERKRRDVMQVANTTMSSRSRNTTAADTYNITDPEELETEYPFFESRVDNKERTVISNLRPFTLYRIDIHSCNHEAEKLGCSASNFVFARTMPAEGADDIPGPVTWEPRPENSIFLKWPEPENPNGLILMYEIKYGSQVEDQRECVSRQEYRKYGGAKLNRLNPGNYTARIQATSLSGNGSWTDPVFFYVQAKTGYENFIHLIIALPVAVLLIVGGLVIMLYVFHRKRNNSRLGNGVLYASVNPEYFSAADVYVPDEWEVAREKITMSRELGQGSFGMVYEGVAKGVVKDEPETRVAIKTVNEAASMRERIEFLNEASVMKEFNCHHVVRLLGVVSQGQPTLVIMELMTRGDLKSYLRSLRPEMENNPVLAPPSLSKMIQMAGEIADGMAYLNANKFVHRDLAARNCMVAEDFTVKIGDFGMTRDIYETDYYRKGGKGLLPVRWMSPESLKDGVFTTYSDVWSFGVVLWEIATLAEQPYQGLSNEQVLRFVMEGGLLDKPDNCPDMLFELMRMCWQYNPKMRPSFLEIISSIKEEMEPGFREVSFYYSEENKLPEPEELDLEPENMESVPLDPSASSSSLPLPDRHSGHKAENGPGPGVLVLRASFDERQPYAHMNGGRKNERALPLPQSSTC

**Q.** What does the source list for `C[C@]1(O)C[C@@H](c2nc(-c3ccc4ccc(-c5ccccc5)nc4c3)c3c(N)nccn32)C1` [OSI-906, cis-3-[8-amino-1-(2-phenyl-quinolin-7-yl)-imidazo[1,5-a]pyrazin-3-yl]-1-methyl-cyclobutanol]?
**A.** inhibition of phosphorylation of IGF-1R (pIGF-1R) [1]: inhibits phosphorylation of both receptors; inhibition of pAkt [2]: inhibition of pAkt; sensitivity of H295R ACC tumor cell line (proliferation and apoptosis) [3]: exhibits sensitivity to OSI-906; CT scan result at 8 weeks of treatment [4, 5]: stable; CT scan result at 16 weeks [4, 5]: decrease in primary lesion as well as improvement in all pulmonary lesions; 18-FDG-PET scan tumor uptake of tracer ([4]; Patient 1, 30 weeks into treatment, residual primary tumor and two remaining metastases): no tumor uptake of the tracer; overall reduction in RECIST measurement of target lesions ([4]; Patient 1, at 16 weeks): 43%; partial response, decrease by RECIST compared to baseline ([4]; Patient 1, subsequent scan): 72%; drug-related toxicities ([4]; Patient 1, up to 56 weeks): No drug-related toxicities have been observed; patients with partial response [4, 6]: One had partial response; patients with stable disease [4, 6]: two had stable disease for >6 months; patients with symptomatic response [4, 6]: one had a dramatic, short-lived sympitomatic response
